The NIST ThermoML archive (doi:10.1021/je700100a)
± gives the expanded uncertainty stated by the source.

Assay: mn = molality of the nth substance listed, in mol/kg
Settings: 101 kPa, Liquid, Buoyancy - hydrostatic balance with magnetic suspension - one sinker

mass density (298.15 K, m1 = 0.0306): 998.491 ± 0.41 kg/m3
mass density (303.15 K, m1 = 0.0105): 996.131 ± 0.41 kg/m3
mass density (303.15 K, m1 = 0.02061): 996.605 ± 0.41 kg/m3
Compound: [Cl-].[K+] [potassium chloride] + O
